The results in this text go back to patent US20050014780A1, “Process for preparing 5-sulfonamido-8-hydroxy-1,6-naphthyridine-7-carboxamides” (priority 2001, published 2005).

Data set [1] has as its target recombinant integrase (HIV integrase) (Human immunodeficiency virus type 1 group M subtype B, UniProt P04585). From the text:
The present invention includes the preparation of naphthyridine carboxamides of Formula (VIII) by the process set forth above in the Summary of the Invention. […] The strand transfer assay is described in Example 193 of WO 02/30930.

A short description of data set [2]: oral absorption and pharmacokinetics in animal models. The data set is classed as in vivo. The note with it: compared to Compound 15 per se.

Regarding `O=C(NCc1ccc(F)cc1)c1nc(N2CCCCS2(=O)=O)c2cccnc2c1O` [Compound 15, 5-(1,1-dioxido-1,2-thiazinan-2-yl)-N-(4-fluorobenzyl)-8-hydroxy-1,6-naphthyridine-7-carboxamide], in data set [1], the “HIV integrase inhibition (in words)” value is listed as “potent HIV integrase inhibitor”.
Turning to `O=C(NCc1ccc(F)cc1)c1nc(N2CCCCS2(=O)=O)c2cccnc2c1[O-].[Na+]` [Na salt of Compound 15, Sodium salt of 5-(1,1-Dioxido-1,2-thiazinan-2-yl)-N-(4-fluorobenzyl)-8-hydroxy-1,6-naphthyridine-7-carboxamide], in data set [2], the oral absorption entry is “superior oral absorption” and the pharmacokinetics entry is given as “improved pharmacokinetics”.
